For experiment [1], the system named is Staphylococcus aureus. Description: Antibacterial activity against methicillin-resistant Staphylococcus aureus SA86 by CLSI M07-A8 protocol based microdilution method. It counts as functional. For orientation: Broth dilution looks for growth in wells or tubes with falling amounts of substance.
Experiment [2] has as its system Staphylococcus aureus. Description: Antibacterial activity against Staphylococcus aureus ATCC 29213 by CLSI M07-A8 protocol based microdilution method. The class given is functional.

SMILES strings stand for the structures. Values after ≈ are worked out from the molar mass of the structure shown. Where only a bound is given, the exact number is not on record here.

Usually MIC stands for the lowest concentration that inhibits growth of the organism. Low values mean a more susceptible organism, high ones a less susceptible organism.

As for `CC(C)CCC[C@@H]1CC(=O)N[C@@H](CO)C(=O)N[C@H](CC(N)=O)C(=O)N[C@@H](CO)C(=O)NCC(=O)N(C)[C@H](Cc2ccccc2)C(=O)N[C@@H](CC(C)C)C(=O)N[C@H](CCCN)C(=O)N[C@@H](CCC(=O)O)C(=O)N[C@H](CC(N)=O)C(=O)N[C@H](C)C(=O)N[C@H](CCCN)C(=O)N(C)[C@@H](C(C)C)C(=O)O1`, the MIC in the experiment with Staphylococcus aureus [1] and in the experiment on Staphylococcus aureus [2] was at least 32 mg/L in each case.
Take `CC(C)CCC[C@@H]1CC(=O)N[C@@H](CO)C(=O)N[C@H](CCCCN)C(=O)N[C@@H](CO)C(=O)NCC(=O)N(C)[C@H](Cc2ccccc2)C(=O)N[C@@H](CC(C)C)C(=O)N[C@H](CCCN)C(=O)N[C@@H](CCC(=O)O)C(=O)N[C@H](CC(N)=O)C(=O)N[C@H](Cc2c[nH]c3ccccc23)C(=O)N[C@H](CCCN)C(=O)N(C)[C@@H](C(C)C)C(=O)O1`: the MIC amounted to 1 mg/L (≈ 0.641 µM) in the experiment on Staphylococcus aureus [1] and 2 mg/L (≈ 1.28 µM) against Staphylococcus aureus [2].
Taken in the same sequence, the figures for `CC(C)CCC[C@@H]1CC(=O)N[C@@H](CO)C(=O)N[C@H](CC(N)=O)C(=O)N[C@@H](CO)C(=O)NCC(=O)N(C)[C@H](Cc2ccccc2)C(=O)N[C@@H](CC(C)C)C(=O)N[C@H](C)C(=O)N[C@@H](CCC(=O)O)C(=O)N[C@H](CC(N)=O)C(=O)N[C@H](Cc2c[nH]c3ccccc23)C(=O)N[C@H](CCCN)C(=O)N(C)[C@@H](C(C)C)C(=O)O1` were at least 32 mg/L and at least 32 mg/L.
Taken in the same sequence, the figures for `CC(C)CCC[C@@H]1CC(=O)N[C@@H](CO)C(=O)N[C@H](CC(N)=O)C(=O)N[C@@H](CO)C(=O)NCC(=O)N(C)[C@H](Cc2ccccc2)C(=O)N[C@@H](C)C(=O)N[C@H](CCCN)C(=O)N[C@@H](CCC(=O)O)C(=O)N[C@H](CC(N)=O)C(=O)N[C@H](Cc2c[nH]c3ccccc23)C(=O)N[C@H](CCCN)C(=O)N(C)[C@@H](C(C)C)C(=O)O1` were at least 32 mg/L and at least 32 mg/L.
Taken in the same sequence, the figures for `CC(C)CCC[C@@H]1CC(=O)N[C@@H](CO)C(=O)N[C@H](CC(N)=O)C(=O)N[C@@H](CO)C(=O)NCC(=O)N(C)[C@H](Cc2ccccc2)C(=O)N[C@@H](CC(C)C)C(=O)N[C@H](CCCN)C(=O)N[C@@H](CCCCN)C(=O)N[C@H](CC(N)=O)C(=O)N[C@H](Cc2c[nH]c3ccccc23)C(=O)N[C@H](CCCN)C(=O)N(C)[C@@H](C(C)C)C(=O)O1` were 1 mg/L (≈ 0.647 µM) and 2 mg/L (≈ 1.29 µM).
Turning to `CC(C)CCC[C@@H]1CC(=O)N[C@@H](CCCCN)C(=O)N[C@H](CC(N)=O)C(=O)N[C@@H](CO)C(=O)NCC(=O)N(C)[C@H](Cc2ccccc2)C(=O)N[C@@H](CC(C)C)C(=O)N[C@H](CCCN)C(=O)N[C@@H](CCC(=O)O)C(=O)N[C@H](CC(N)=O)C(=O)N[C@H](Cc2c[nH]c3ccccc23)C(=O)N[C@H](CCCN)C(=O)N(C)[C@@H](C(C)C)C(=O)O1`, the MIC against Staphylococcus aureus [1] and in the experiment with Staphylococcus aureus [2] was 2 mg/L (≈ 1.26 µM) throughout.
In the case of `CC(C)CCC[C@@H]1CC(=O)N[C@@H](CO)C(=O)N[C@H](CC(N)=O)C(=O)N[C@@H](CO)C(=O)NCC(=O)N(C)[C@H](Cc2ccccc2)C(=O)N[C@@H](CC(C)C)C(=O)N[C@H](CCCN)C(=O)N[C@@H](CCC(=O)O)C(=O)N[C@H](CC(N)=O)C(=O)N[C@H](Cc2c[nH]c3ccccc23)C(=O)N[C@H](CCCN)C(=O)N[C@@H](C(C)C)C(=O)O1`, the MIC in the experiment on Staphylococcus aureus [1] and in the experiment on Staphylococcus aureus [2] was at least 32 mg/L throughout.
As to `CC(C)CCC[C@@H]1CC(=O)N[C@@H](CO)C(=O)N[C@H](CC(N)=O)C(=O)N[C@@H](C)C(=O)NCC(=O)N(C)[C@H](Cc2ccccc2)C(=O)N[C@@H](CC(C)C)C(=O)N[C@H](CCCN)C(=O)N[C@@H](CCC(=O)O)C(=O)N[C@H](CC(N)=O)C(=O)N[C@H](Cc2c[nH]c3ccccc23)C(=O)N[C@H](CCCN)C(=O)N(C)[C@@H](C(C)C)C(=O)O1`, the MIC with Staphylococcus aureus [1] and against Staphylococcus aureus [2] was 2 mg/L (≈ 1.31 µM) in each case.
On to `CC(C)CCC[C@@H]1CC(=O)N[C@@H](CO)C(=O)N[C@H](CC(N)=O)C(=O)N[C@@H](CCCCN)C(=O)NCC(=O)N(C)[C@H](Cc2ccccc2)C(=O)N[C@@H](CC(C)C)C(=O)N[C@H](CCCN)C(=O)N[C@@H](CCC(=O)O)C(=O)N[C@H](CC(N)=O)C(=O)N[C@H](Cc2c[nH]c3ccccc23)C(=O)N[C@H](CCCN)C(=O)N(C)[C@@H](C(C)C)C(=O)O1`, for which the values for the MIC against Staphylococcus aureus [1] and against Staphylococcus aureus [2] were 2 mg/L (≈ 1.26 µM) and 4 mg/L (≈ 2.52 µM), respectively.
Consider `CC(C)CCC[C@@H]1CC(=O)N[C@@H](CO)C(=O)N[C@H](CC(N)=O)C(=O)N[C@@H](CO)C(=O)NCC(=O)N(C)[C@H](Cc2ccccc2)C(=O)N[C@@H](CCCCN)C(=O)N[C@H](CCCN)C(=O)N[C@@H](CCC(=O)O)C(=O)N[C@H](CC(N)=O)C(=O)N[C@H](Cc2c[nH]c3ccccc23)C(=O)N[C@H](CCCN)C(=O)N(C)[C@@H](C(C)C)C(=O)O1`, for which the MIC in the experiment on Staphylococcus aureus [1] and with Staphylococcus aureus [2] was at least 32 mg/L each time.
Regarding `CC(C)CCC[C@@H]1CC(=O)N[C@@H](CO)C(=O)N[C@H](CC(N)=O)C(=O)N[C@@H](CO)C(=O)NCC(=O)N(C)[C@H](Cc2ccccc2)C(=O)N[C@@H](CC(C)C)C(=O)N[C@H](CCCN)C(=O)N[C@@H](C)C(=O)N[C@H](CC(N)=O)C(=O)N[C@H](Cc2c[nH]c3ccccc23)C(=O)N[C@H](CCCN)C(=O)N(C)[C@@H](C(C)C)C(=O)O1`, the MIC with Staphylococcus aureus [1] came out at 0.5 mg/L (≈ 0.336 µM); in the experiment with Staphylococcus aureus [2] it was 1 mg/L (≈ 0.672 µM).
With `CC(C)CCC[C@@H]1CC(=O)N[C@@H](CO)C(=O)N[C@H](CC(N)=O)C(=O)N[C@@H](CO)C(=O)NCC(=O)N(C)[C@H](Cc2ccccc2)C(=O)N[C@@H](CC(C)C)C(=O)N[C@H](CCCN)C(=O)N[C@@H](CCC(=O)O)C(=O)N[C@H](CC(N)=O)C(=O)N[C@H](Cc2c[nH]c3ccccc23)C(=O)N[C@H](CCCN)C(=O)N(C)[C@@H](C(C)C)C(=O)O1`, the MIC in the experiment with Staphylococcus aureus [1] and against Staphylococcus aureus [2] was 1 mg/L (≈ 0.647 µM) in each case.
Regarding `CC(C)CCC[C@@H]1CC(=O)N[C@@H](CO)C(=O)N[C@H](CC(N)=O)C(=O)N[C@@H](CO)C(=O)N[C@@H](C)C(=O)N(C)[C@H](Cc2ccccc2)C(=O)N[C@@H](CC(C)C)C(=O)N[C@H](CCCN)C(=O)N[C@@H](CCC(=O)O)C(=O)N[C@H](CC(N)=O)C(=O)N[C@H](Cc2c[nH]c3ccccc23)C(=O)N[C@H](CCCN)C(=O)N(C)[C@@H](C(C)C)C(=O)O1`, the MIC against Staphylococcus aureus [1] and against Staphylococcus aureus [2] was at least 32 mg/L throughout.
For `CC(C)CCC[C@@H]1CC(=O)N[C@@H](CO)C(=O)N[C@H](C)C(=O)N[C@@H](CO)C(=O)NCC(=O)N(C)[C@H](Cc2ccccc2)C(=O)N[C@@H](CC(C)C)C(=O)N[C@H](CCCN)C(=O)N[C@@H](CCC(=O)O)C(=O)N[C@H](CC(N)=O)C(=O)N[C@H](Cc2c[nH]c3ccccc23)C(=O)N[C@H](CCCN)C(=O)N(C)[C@@H](C(C)C)C(=O)O1`, the MIC against Staphylococcus aureus [1] worked out at 2 mg/L (≈ 1.33 µM); in the experiment with Staphylococcus aureus [2] it was 1 mg/L (≈ 0.665 µM).
Taken in the same sequence, the figures for `CC(C)CCC[C@@H]1CC(=O)N[C@@H](CO)C(=O)N[C@H](CC(N)=O)C(=O)N[C@@H](CO)C(=O)NCC(=O)N(C)[C@H](Cc2ccccc2)C(=O)N[C@@H](CC(C)C)C(=O)N[C@H](CCCN)C(=O)N[C@@H](CCC(=O)O)C(=O)N[C@H](CCCCN)C(=O)N[C@H](Cc2c[nH]c3ccccc23)C(=O)N[C@H](CCCN)C(=O)N(C)[C@@H](C(C)C)C(=O)O1` were 1 mg/L (≈ 0.641 µM) and 1 mg/L (≈ 0.641 µM).
The like results for `CC(C)CCC[C@@H]1CC(=O)N[C@@H](C)C(=O)N[C@H](CC(N)=O)C(=O)N[C@@H](CO)C(=O)NCC(=O)N(C)[C@H](Cc2ccccc2)C(=O)N[C@@H](CC(C)C)C(=O)N[C@H](CCCN)C(=O)N[C@@H](CCC(=O)O)C(=O)N[C@H](CC(N)=O)C(=O)N[C@H](Cc2c[nH]c3ccccc23)C(=O)N[C@H](CCCN)C(=O)N(C)[C@@H](C(C)C)C(=O)O1` were, in that order, 2 mg/L (≈ 1.31 µM) and 2 mg/L (≈ 1.31 µM).
`CC(C)CCC[C@@H]1CC(=O)N[C@@H](CO)C(=O)N[C@H]([C@@H](O)C(N)=O)C(=O)N[C@@H](CO)C(=O)NCC(=O)N(C)[C@H](Cc2ccccc2)C(=O)N[C@@H](CC(C)C)C(=O)N[C@H](CCCN)C(=O)N[C@@H](CCC(=O)O)C(=O)N[C@H](CC(N)=O)C(=O)N[C@H](Cc2c[nH]c3ccccc23)C(=O)N[C@H](CCCN)C(=O)N(C)[C@@H](C(C)C)C(=O)O1`: the MIC in the experiment with Staphylococcus aureus [1] and against Staphylococcus aureus [2] was 1 mg/L (≈ 0.64 µM) each time.
Regarding `CC(C)CCC[C@@H]1CC(=O)N[C@@H](CO)C(=O)N[C@H](CC(N)=O)C(=O)N[C@@H](CO)C(=O)NCC(=O)N(C)[C@H](Cc2ccccc2)C(=O)N[C@@H](CC(C)C)C(=O)N[C@H](CCCCN)C(=O)N[C@@H](CCC(=O)O)C(=O)N[C@H](CC(N)=O)C(=O)N[C@H](Cc2c[nH]c3ccccc23)C(=O)N[C@H](CCCN)C(=O)N(C)[C@@H](C(C)C)C(=O)O1`, the figures for the MIC against Staphylococcus aureus [1] and with Staphylococcus aureus [2] were 2 mg/L (≈ 1.28 µM) and 1 mg/L (≈ 0.641 µM), respectively.
Regarding `CC(C)CCC[C@@H]1CC(=O)N[C@@H](CO)C(=O)N[C@H](CC(N)=O)C(=O)N[C@@H](CO)C(=O)NCC(=O)N[C@H](C)C(=O)N[C@@H](CC(C)C)C(=O)N[C@H](CCCN)C(=O)N[C@@H](CCC(=O)O)C(=O)N[C@H](CC(N)=O)C(=O)N[C@H](Cc2c[nH]c3ccccc23)C(=O)N[C@H](CCCN)C(=O)N(C)[C@@H](C(C)C)C(=O)O1`, the MIC in the experiment on Staphylococcus aureus [1] and against Staphylococcus aureus [2] was at least 32 mg/L throughout.
As for `CC(C)CCC[C@@H]1CC(=O)N[C@@H](CO)C(=O)N[C@H](CC(N)=O)C(=O)N[C@@H](CO)C(=O)NCC(=O)N(C)[C@H](Cc2ccccc2)C(=O)N[C@@H](CC(C)C)C(=O)N[C@H](CCCN)C(=O)N[C@@H](CCC(=O)O)C(=O)N[C@H](C)C(=O)N[C@H](Cc2c[nH]c3ccccc23)C(=O)N[C@H](CCCN)C(=O)N(C)[C@@H](C(C)C)C(=O)O1`, the MIC in the experiment on Staphylococcus aureus [1] came out at 1 mg/L (≈ 0.665 µM); with Staphylococcus aureus [2] it was 2 mg/L (≈ 1.33 µM).
The like results for `CC(C)CCC[C@@H]1CC(=O)N[C@@H](CO)C(=O)N[C@H](CC(N)=O)C(=O)N[C@@H](CO)C(=O)NCC(=O)N(C)[C@H](Cc2ccccc2)C(=O)N[C@@H](CC(C)C)C(=O)N[C@H](CCCN)C(=O)N[C@@H](CCC(=O)O)C(=O)N[C@H](CC(N)=O)C(=O)N[C@H](Cc2c[nH]c3ccccc23)C(=O)N[C@H](C)C(=O)N(C)[C@@H](C(C)C)C(=O)O1` were, in that order, at least 32 mg/L and at least 32 mg/L.
Taken in the same sequence, the figures for `CC(C)CCC[C@@H]1CC(=O)N[C@@H](CO)C(=O)N[C@H]([C@H](O)C(N)=O)C(=O)N[C@@H](CO)C(=O)NCC(=O)N(C)[C@H](Cc2ccccc2)C(=O)N[C@@H](CC(C)C)C(=O)N[C@H](CCCN)C(=O)N[C@@H](CCC(=O)O)C(=O)N[C@H](CC(N)=O)C(=O)N[C@H](Cc2c[nH]c3ccccc23)C(=O)N[C@H](CCCN)C(=O)N(C)[C@@H](C(C)C)C(=O)O1` were 1 mg/L (≈ 0.64 µM) and 1 mg/L (≈ 0.64 µM).
